One assay has as its target MCL-1 (Homo sapiens (Human), UniProt Q07820). Description: Cell free Mcl-1:Bim affinity assay (fluorescence polarization competition). It is filed as binding. The conditions noted are these: 15 nM MCL-1, 5 nM FITC-Bim, 1 hour at room temperature; class symbols; read-out: BIM_Ki. In outline: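 Compounds competed with FITC-labelled Bim peptide (5 nM) for MCL-1 (15 nM) in HEPES/NaCl buffer with 1% DMSO, 1 h at room temperature. Fluorescence polarization (535 nm emission) gave % inhibition versus DMSO and positive controls; IC50 from 10-point curves, converted to Ki by the Nikolovska-Coleska equation.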
(In general: Polarisation of emitted light reports the rotation of a fluorescent probe.)

The test system of the next assay is H929 cells. In words: Cell viability assay (H929 10 FBS). It is filed as cell-based. The following applies: Homo sapiens, NCI-H929, 24 hours, read-out: H929_10FBS IC50. The method in brief:
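H929 cells, 4000/well, in RPMI 1640 with 10% FBS, sodium pyruvate, HEPES and glucose were exposed to compound 24 h at 37 °C. Viability read as luminescence after 30-60 min at RT with CellTiter-Glo or ATPlite 1 Step.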

This is an account of results in patent publication US11130769B2 (Prelude Therapeutics Incorporated, priority 2018, dated 2021).

The IC50 is the midpoint of a concentration-inhibition curve.

Bounds are passed on as bounds.

Sequence of MCL-1 (Q07820 whole entry): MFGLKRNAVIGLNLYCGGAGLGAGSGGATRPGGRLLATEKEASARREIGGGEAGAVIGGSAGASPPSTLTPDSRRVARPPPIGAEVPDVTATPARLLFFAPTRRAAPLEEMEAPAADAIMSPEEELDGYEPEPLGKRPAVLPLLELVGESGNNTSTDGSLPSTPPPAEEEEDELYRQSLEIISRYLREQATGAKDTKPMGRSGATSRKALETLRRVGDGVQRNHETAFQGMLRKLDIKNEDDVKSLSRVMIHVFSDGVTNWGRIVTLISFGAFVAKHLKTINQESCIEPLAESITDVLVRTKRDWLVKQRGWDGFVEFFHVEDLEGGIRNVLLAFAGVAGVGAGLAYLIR

For the compound `CN(C(=O)O[C@H]1/C=C/CN(C)C(C)(C)C(=O)NS(=O)(=O)c2ccc3c(c2)N(C[C@@H]2CC[C@H]21)C[C@@]1(CCCc2cc(Cl)ccc21)CO3)[C@@H]1CCOC1` [Example 218, [(3R,6R,7S,8E,22S)-6′-Chloro-11,12,12-trimethyl-13,15,15-trioxo-spiro[20-oxa-15-thia-1,11,14-triazatetracyclo[14.7.2.03,6.019,24]pentacosa-8,16,18,24-tetraene-22,1′-tetralin]-7-yl] N-methyl-N-[(3R)-tetrahydrofuran-3-yl]carbamate], the Ki at MCL-1 is < 1 nM. Moreover, the IC50 in the assay with H929 cells was < 500 nM.

As to `CC1(C)OC/C=C/[C@@H](OCCN2CCCC2)[C@@H]2CC[C@H]2CN2C[C@@]3(CCCc4cc(Cl)ccc43)COc3ccc(cc32)S(=O)(=O)NC1=O` [Example 274, (3R,6R,7R,8E,22S)-6′-Chloro-12,12-dimethyl-15,15-dioxo-7-(2-pyrrolidin-1-ylethoxy)spiro[11,20-dioxa-15-thia-1,14-diazatetracyclo[14.7.2.03,6.019,24]pentacosa-8,16,18,24-tetraene-22,1′-tetralin]-13-one], the Ki on MCL-1 was < 1 nM. In addition, in the assay on H929 cells, the concentration for half-maximal inhibition (IC50) is < 1000 nM.

Take `CC(=O)O[C@H]1/C=C/CO[C@@H](C)C(=O)NS(=O)(=O)c2ccc3c(c2)N(C[C@@H]2CC[C@H]21)C[C@@]1(CCCc2cc(Cl)ccc21)CO3` [Example 113, [(3R,6R,7S,8E,12S,22S)-6′-Chloro-12-methyl-13,15,15-trioxo-spiro[11,20-dioxa-15-thia-1,14-diazatetracyclo[14.7.2.03,6.019,24]pentacosa-8,16,18,24-tetraene-22,1′-tetralin]-7-yl] acetate]: at MCL-1, the Ki is < 1 nM. For the same compound, in the assay on H929 cells, the half-inhibitory concentration (IC50) was < 1000 nM.

With `CC1(C)OC/C=C/[C@H](OCCN2CCOCC2)[C@@H]2CC[C@H]2CN2C[C@@]3(CCCc4cc(Cl)ccc43)COc3ccc(cc32)S(=O)(=O)NC1=O` [Example 270, (3R,6R,7S,8E,22S)-6′-Chloro-12,12-dimethyl-7-(2-morpholinoethoxy)-15,15-dioxo-spiro[11,20-dioxa-15-thia-1,14-diazatetracyclo[14.7.2.03,6.019,24]pentacosa-8,16,18,24-tetraene-22,1′-tetralin]-13-one], the Ki at MCL-1 was < 1 nM. In the assay with H929 cells, the IC50 was < 500 nM.

Take `CN(C(=O)O[C@H]1/C=C/COC(C)(C)C(=O)NS(=O)(=O)c2ccc3c(c2)N(C[C@@H]2CC[C@H]21)C[C@]1(CO3)OCCc2cc(Cl)ccc21)C1CCOCC1` [Example 300, [(3R,6R,7S,8E,22R)-6′-Chloro-12,12-dimethyl-13,15,15-trio-spiro[11,20-dioxa-15-thia-1,14-diazatetracyclo[14.7.2.03,6.019,24]pentacosa-8,16,18,24-tetraene-22,1′-isochromane]-7-yl] N-methyl-N-tetrahydropyran-4-yl-carbamate]: the Ki at MCL-1 is < 1 nM. Further, the IC50 in the assay with H929 cells is < 1000 nM.

As to `CN(C)CCN(C)C(=O)O[C@H]1/C=C/CN(C)C(C)(C)C(=O)NS(=O)(=O)c2ccc3c(c2)N(C[C@@H]2CC[C@H]21)C[C@@]1(CCCc2cc(Cl)ccc21)CO3` [Example 213, [(3R,6R,7S,8E,22S)-6′-Chloro-11,12,12-trimethyl-13,15,15-trioxo-spiro[20-oxa-15-thia-1,11,14-triazatetracyclo[14.7.2.03,6.019,24]pentacosa-8,16,18,24-tetraene-22,1′-tetralin]-7-yl] N-[2-(dimethylamino)ethyl]-N-methyl-carbamate], the Ki on MCL-1 was < 1 nM. In addition, in the assay on H929 cells, the 50% inhibitory concentration (IC50) was < 500 nM.

Consider `CO[C@H]1/C=C/CC[C@@H](C)C(=O)NS(=O)(=O)c2ccc3c(c2)N(C[C@@H]2CC[C@H]21)C[C@@]1(CCCc2cc(Cl)ccc21)CO3` [Example 81, (3R,6R,7S,8E,12R,22S)-6′-Chloro-7-methoxy-12-methyl-15,15-dioxo-spiro[20-oxa-15-thia-1,14-diazatetracyclo[14.7.2.03,6.019,24]pentacosa-8,16(25),17,19(24)-tetraene-22,1′-tetralin]-13-one], for which the Ki at MCL-1 is 1 to 100 nM. Moreover, the IC50 in the assay on H929 cells was > 1000 nM.

Consider `O=C1Cc2ccn(n2)CC(=O)N2CCC(C2)CN2C[C@@]3(CCCc4cc(Cl)ccc43)COc3ccc(cc32)S(=O)(=O)N1` (stereo partly drawn) [Example 297, (23S)-6′-Chloro-16,16-dioxo-spiro[21-oxa-thia-1,6,9,15,27-pentazapentacyclo[15.7.2.13,6.19,12.020,25]octacosa-10,12(27),17,19,25-pentaene-23,1′-tetralin]-7,14-dione], for which the Ki on MCL-1 is 1 to 100 nM. Further, in the assay on H929 cells, the IC50 is > 1000 nM.

As for `CN1CCN(CCNC(=O)O[C@H]2/C=C/COC(C)(C)C(=O)NS(=O)(=O)c3ccc4c(c3)N(C[C@@H]3CC[C@H]32)C[C@@]2(CCCc3cc(Cl)ccc32)CO4)CC1` [Example 149, [(3R,6R,7S,8E,22S)-6′-Chloro-12,12-dimethyl-13,15,15-trioxo-spiro[11,20-dioxa-15-thia-1,14-diazatetracyclo[14.7.2.03,6.019,24]pentacosa-8,16,18,24-tetraene-22,1′-tetralin]-7-yl] N-[2-(4-methylpiperazin-1-yl)ethyl]carbamate], the Ki on MCL-1 is < 1 nM. The half-maximal inhibitory concentration (IC50) in the assay with H929 cells was < 500 nM.

Turning to `CN1CCCN(C(=O)O[C@H]2/C=C/COC(C)(C)C(=O)NS(=O)(=O)c3ccc4c(c3)N(C[C@@H]3CC[C@H]32)C[C@@]2(CCCc3cc(Cl)ccc32)CO4)CC1` [Example 54, [(3R,6R,7S,8E,22S)-6′-Chloro-12,12-dimethyl-13,15,15-trioxo-spiro[11,20-dioxa-15-thia-1,14-diazatetracyclo[14.7.2.03,6.019,24]pentacosa-8,16,18,24-tetraene-22,1′-tetralin]-7-yl] 4-methyl-1,4-diazepane-1-carboxylate], the Ki on MCL-1 was < 1 nM. Moreover, the half-inhibitory concentration (IC50) in the assay with H929 cells was < 500 nM.

Take `CC1(C)OC/C=C/[C@@H](OCCN2CCOCC2)[C@@H]2CC[C@H]2CN2C[C@@]3(CCCc4cc(Cl)ccc43)COc3ccc(cc32)S(=O)(=O)NC1=O` [Example 271, (3R,6R,7R,8E,22S)-6′-Chloro-12,12-dimethyl-7-(2-morpholinoethoxy)-15,15-dioxo-spiro[11,20-dioxa-15-thia-1,14-diazatetracyclo[14.7.2.03,6.019,24]pentacosa-8,16,18,24-tetraene-22,1′-tetralin]-13-one]: the Ki at MCL-1 was < 1 nM. The half-maximal inhibitory concentration (IC50) in the assay on H929 cells is < 500 nM.

As to `CC1(C)OC/C=C/[C@H](OCCN2CCCCC2)[C@@H]2CC[C@H]2CN2C[C@@]3(CCCc4cc(Cl)ccc43)COc3ccc(cc32)S(=O)(=O)NC1=O` [Example 263, (3R,6R,7S,8E,22S)-6′-Chloro-12,12-dimethyl-15,15-dioxo-7-[2-(1-piperidyl)ethoxy]spiro[11,20-dioxa-15-thia-1,14-diazatetracyclo[14.7.2.03,6.019,24]pentacosa-8,16,18,24-tetraene-22,1′-tetralin]-13-one], on MCL-1, the Ki was < 1 nM. For the same compound, in the assay on H929 cells, the IC50 is < 500 nM.

Regarding `CO[C@H]1/C=C/C[C@H](C)[C@@H](C)C(=O)NS(=O)(=O)c2ccc3c(c2)N(C[C@@H]2CC[C@H]21)C[C@@]1(CCCc2cc(Cl)ccc21)CO3` [Example 79, (3R,6R,7S,8E,11S,12R,22S)-6′-Chloro-7-methoxy-11,12-dimethyl-15,15-dioxo-spiro[20-oxa-15-thia-1,14-diazatetracyclo[14.7.2.03,6.019,24]pentacosa-8,16,18,24-tetraene-22,1′-tetralin]-13-one], on MCL-1, the Ki was 1 to 100 nM. Also, the 50% inhibitory concentration (IC50) in the assay on H929 cells was > 1000 nM.
